Reference: US20100137314A1, “HARMFUL ORGANISM CONTROL COMPOSITION” (priority 2007, published 2010)

What was measured:
Bemisia tabaci [1] = experiment: Test Example 2: cabbage leaf disc immersion test, life or death of Bemisia tabaci imagoes after 2 days; type: in vivo; details: compound X alone 2000 ppm
Description: Ten parts of the compound I-(138) was dissolved in 40 parts of xylene and 40 parts of N,N-dimethylformamide, and thereto was added 10 parts of Sorpol 3005X (manufactured by TOHO Chemical Industry Co., LTD.). The mixture was stirred well to prepare a formulation.
The formulation of the compound X prepared in Test Example 1 was diluted with water to a predetermined concentration (2000 ppm). To the water dilution was added the formulation of the compound I-(138) so that the concentration of the compound I became a predetermined concentration (800 ppm). To the resulting dilution was added 1/5000 by volume of a spreading agent (New Rinou manufactured by Nihon Nohyaku) to prepare a test diluted solution.
Separately, the formulation of the compound I-(138) was diluted with water to a predetermined concentration (800 ppm). To the water dilution was added 1/5000 by volume of a spreading agent (New Rinou manufactured by Nihon Nohyaku) to prepare a test diluted solution. […]
On the other hand, 3 mL of 1% agar was put in a glass cup having an internal diameter of 2.6 cm and a height of 4.5 cm. […] After 2 days, the life or death of the Bemisia tabaci imagoes was determined, and a controlling value was calculated by the above-described equation.

Bemisia tabaci [2] = experiment: Test Example 1: cabbage leaf disc immersion test, life or death of Bemisia tabaci imagoes after 4 days; type: in vivo; details: foliar, 96 h, compound X alone 1000 ppm, cabbage leaf disc immersed 30 seconds, read-out: Pest controlling value (%)
Description: Ten parts of the compound X was dissolved in 40 parts of xylene and 40 parts of N,N-dimethylformamide, and thereto was added 10 parts of Sorpol 3005X (manufactured by TOHO Chemical Industry Co., LTD.). The mixture was stirred well to prepare a formulation. Separately, 10 parts of any one of the compound I-(5), the compound I-(34), the compound I-(68), the compound I-(70), the compound I-(74), the compound I-(115), the compound I-(117), the compound I-(119), the compound I-(204) and the compound I-(213) was dissolved in 40 parts of xylene and 40 parts of N,N-dimethylformamide, and thereto was added 10 parts of Sorpol 3005X (manufactured by TOHO Chemical Industry Co., LTD.). The mixture was stirred well to prepare a formulation. The formulation of the compound X was diluted with water to a predetermined concentration (1000 ppm). […] After 4 days, the life or death of the Bemisia tabaci imagoes was determined, and a controlling value was calculated by the following equation: […] wherein Cb: the number of insects in a non-treated section before treatment, Cai: the number of insects in a non-treated section on observation, Tb: the number of insects in a treated-section before treatment, Tai: the number of insects in a treated section on observation. […]

CC#CCOc1cc(Cc2ccccc2Cl)ncn1 [compound X, 4-(2-chlorobenzyl)-6-(2-butynyloxy)pyrimidine]
Pest controlling value (%) (Bemisia tabaci [1]): 26%
pest or weed control at 1000 ppm (Bemisia tabaci [2]): 25%
